Measured values published in patent US20250319080A1, “BIO[…] FORMULATIONS AND METHODS OF USE AND MANUFACTURE THEREOF” (PURDUE RESEARCH FOUNDATION, priority 2022, published 2025).
Converted amounts (≈) assume the structure as drawn.

Assay: Solubility of buprenorphine FB in release media
Assay type: physicochemical
Settings: 48 hours
Procedure: The solubility of buprenorphine FB was determined in PBS with 0.05% Tween 20 (PBST) and 0.5% w/v sodium dodecyl sulfate (SDS) in water. The solubility was determined by placing excess buprenorphine FB into the media mentioned above at 37° C. and shaking at 40 RPM for 48 hours. After 48 hours, a sample was taken and centrifuged at 15,000 RPM for 5 minutes. The supernatant was then collected and diluted with the same medium, and the concentration was determined using high-performance liquid chromatography.

CO[C@@]12CC[C@@]3(C[C@@H]1[C@](C)(O)C(C)(C)C)[C@H]1Cc4ccc(O)c5c4[C@@]3(CCN1CC1CC1)[C@H]2O5 [Buprenorphine FB, Buprenorphine free base]
Solubility in 0.5% SDS (0.5% w/v sodium dodecyl sulfate in water, 37° C.): 0.336 mg/mL (≈ 718 µM)
Solubility in PBST (PBS with 0.05% Tween 20, 37° C.): 0.0088 mg/mL (≈ 18.8 µM)
